# Measurements: ChEMBL document CHEMBL2390858, “Design, synthesis and anti-tuberculosis activity of 1-adamantyl-3-heteroaryl ureas with improved in vitro pharmacokinetic properties” (Bioorg Med Chem, 2013)
# Columns and labels:
# [1] = biological target: T1, Bifunctional epoxide hydrolase 2 (Homo sapiens, UniProt P34913)
# T1 sequence (P34913 whole entry): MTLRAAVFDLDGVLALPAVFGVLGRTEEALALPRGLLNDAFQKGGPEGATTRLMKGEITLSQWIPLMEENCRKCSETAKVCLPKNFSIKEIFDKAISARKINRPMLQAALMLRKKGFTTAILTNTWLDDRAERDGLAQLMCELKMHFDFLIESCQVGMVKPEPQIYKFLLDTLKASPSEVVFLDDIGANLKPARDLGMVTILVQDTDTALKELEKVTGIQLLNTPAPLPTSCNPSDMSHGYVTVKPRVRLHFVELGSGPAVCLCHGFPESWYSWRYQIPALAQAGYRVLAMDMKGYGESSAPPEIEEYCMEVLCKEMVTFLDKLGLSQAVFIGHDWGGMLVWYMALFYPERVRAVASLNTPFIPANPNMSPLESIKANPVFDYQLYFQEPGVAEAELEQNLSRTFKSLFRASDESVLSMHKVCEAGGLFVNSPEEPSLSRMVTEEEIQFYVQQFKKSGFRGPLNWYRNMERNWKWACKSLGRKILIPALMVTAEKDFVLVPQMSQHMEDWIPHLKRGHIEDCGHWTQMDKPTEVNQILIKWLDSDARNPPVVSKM
# [2] = system: Vero; test: cells; settings: Chlorocebus sabaeus, 72 h
# [3] = system: Pseudomonas aeruginosa; test: microbe, parasite or virus in culture
# [4] = system: Proteus vulgaris; test: microbe, parasite or virus in culture
# [5] = system: Proteus mirabilis; test: microbe, parasite or virus in culture
# [6] = system: Klebsiella pneumoniae; test: microbe, parasite or virus in culture
# [7] = system: Escherichia coli; test: microbe, parasite or virus in culture; settings: K-12
# [8] = system: Burkholderia cepacia; test: microbe, parasite or virus in culture
# [9] = system: Bacillus subtilis; test: microbe, parasite or virus in culture
# [10] = system: Acinetobacter; test: microbe, parasite or virus in culture
# [11] = system: Streptococcus pneumoniae; test: microbe, parasite or virus in culture
# [12] = system: Streptococcus pyogenes; test: microbe, parasite or virus in culture
# [13] = system: Staphylococcus aureus; test: microbe, parasite or virus in culture; settings: NRS70
# [14] = system: Staphylococcus aureus; test: microbe, parasite or virus in culture; settings: ATCC 29213
# [15] = system: Enterococcus faecalis; test: microbe, parasite or virus in culture
# [16] = system: Bacillus anthracis; test: microbe, parasite or virus in culture; settings: Sterne
# [17] = system: Mycobacterium tuberculosis; test: microbe, parasite or virus in culture; settings: H37Rv, 168 h
# [18] = buffer, 18 h, pH 7.4
Structure (SMILES),IC50 [1],IC50 [2],MIC [3],MIC [4],MIC [5],MIC [6],MIC [7],MIC [8],MIC [9],MIC [10],MIC [11],MIC [12],MIC [13],MIC [14],MIC [15],MIC [16],MIC [17],solubility [18]
O=C(Nc1nc2ccccc2s1)NC12CC3CC(CC(C3)C1)C2,3 nM,17 µg/mL,> 200 µg/mL,> 200 µg/mL,> 200 µg/mL,> 200 µg/mL,> 200 µg/mL,> 200 µg/mL,200 µg/mL,> 200 µg/mL,> 200 µg/mL,> 200 µg/mL,> 200 µg/mL,> 200 µg/mL,> 200 µg/mL,200 µg/mL,0.78 µg/mL,
Cc1cnc(NC(=O)NC23CC4CC(CC(C4)C2)C3)s1,116 nM,23 µg/mL,> 200 µg/mL,> 200 µg/mL,> 200 µg/mL,> 200 µg/mL,> 200 µg/mL,> 200 µg/mL,> 200 µg/mL,> 200 µg/mL,> 200 µg/mL,> 200 µg/mL,200 µg/mL,> 200 µg/mL,200 µg/mL,> 200 µg/mL,3.13 µg/mL,
Cc1noc(NS(=O)(=O)c2ccc(NC(=O)NC34CC5CC(CC(C5)C3)C4)cc2)c1C,31 nM,,> 200 µg/mL,> 200 µg/mL,> 200 µg/mL,> 200 µg/mL,> 200 µg/mL,> 200 µg/mL,> 200 µg/mL,> 200 µg/mL,> 200 µg/mL,> 200 µg/mL,> 200 µg/mL,> 200 µg/mL,> 200 µg/mL,> 200 µg/mL,25 µg/mL,27.3 µg/mL
Cc1noc(NC(=O)NC23CC4CC(CC(C4)C2)C3)c1C#N,25 nM,,> 200 µg/mL,> 200 µg/mL,> 200 µg/mL,> 200 µg/mL,> 200 µg/mL,200 µg/mL,> 200 µg/mL,> 200 µg/mL,> 200 µg/mL,> 200 µg/mL,> 200 µg/mL,> 200 µg/mL,200 µg/mL,> 200 µg/mL,100 µg/mL,1.2 µg/mL
CCn1nc(NC(=O)NC23CC4CC(CC(C4)C2)C3)cc1C,2510 nM,,> 200 µg/mL,> 200 µg/mL,> 200 µg/mL,> 200 µg/mL,> 200 µg/mL,> 200 µg/mL,> 200 µg/mL,> 200 µg/mL,> 200 µg/mL,> 200 µg/mL,> 200 µg/mL,> 200 µg/mL,> 200 µg/mL,> 200 µg/mL,12.5 µg/mL,13.2 µg/mL
O=C(Nc1nccs1)NC12CC3CC(CC(C3)C1)C2,83 nM,22 µg/mL,> 200 µg/mL,> 200 µg/mL,> 200 µg/mL,> 200 µg/mL,> 200 µg/mL,> 200 µg/mL,> 200 µg/mL,> 200 µg/mL,100 µg/mL,> 200 µg/mL,> 200 µg/mL,> 200 µg/mL,> 200 µg/mL,> 200 µg/mL,3.13 µg/mL,
O=C(Nc1cccnc1)NC12CC3CC(CC(C3)C1)C2,113 nM,,> 200 µg/mL,> 200 µg/mL,> 200 µg/mL,> 200 µg/mL,> 200 µg/mL,> 200 µg/mL,> 200 µg/mL,> 200 µg/mL,> 200 µg/mL,> 200 µg/mL,> 200 µg/mL,> 200 µg/mL,> 200 µg/mL,> 200 µg/mL,12.5 µg/mL,6.7 µg/mL
COc1ccc(NS(=O)(=O)c2ccc(NC(=O)NC34CC5CC(CC(C5)C3)C4)cc2)nn1,7 nM,,> 200 µg/mL,200 µg/mL,100 µg/mL,> 200 µg/mL,200 µg/mL,200 µg/mL,200 µg/mL,> 200 µg/mL,100 µg/mL,> 200 µg/mL,100 µg/mL,200 µg/mL,200 µg/mL,50 µg/mL,25 µg/mL,14.1 µg/mL
CCCn1nc(NC(=O)NC23CC4CC(CC(C4)C2)C3)cc1C,751 nM,26 µg/mL,> 200 µg/mL,> 200 µg/mL,> 200 µg/mL,> 200 µg/mL,> 200 µg/mL,> 200 µg/mL,> 200 µg/mL,> 200 µg/mL,> 200 µg/mL,> 200 µg/mL,> 200 µg/mL,> 200 µg/mL,> 200 µg/mL,> 200 µg/mL,1.56 µg/mL,
Cc1cc(NC(=O)NC23CC4CC(CC(C4)C2)C3)no1,136 nM,,> 200 µg/mL,> 200 µg/mL,> 200 µg/mL,> 200 µg/mL,> 200 µg/mL,> 200 µg/mL,200 µg/mL,> 200 µg/mL,> 200 µg/mL,> 200 µg/mL,> 200 µg/mL,200 µg/mL,> 200 µg/mL,> 200 µg/mL,27 µg/mL,25.9 µg/mL
Cc1csc(NC(=O)NC23CC4CC(CC(C4)C2)C3)n1,485 nM,13 µg/mL,> 200 µg/mL,> 200 µg/mL,> 200 µg/mL,> 200 µg/mL,> 200 µg/mL,> 200 µg/mL,> 200 µg/mL,> 200 µg/mL,25 µg/mL,> 200 µg/mL,100 µg/mL,50 µg/mL,> 200 µg/mL,> 200 µg/mL,1.56 µg/mL,
Cc1nnc(NC(=O)NC23CC4CC(CC(C4)C2)C3)o1,595 nM,,> 200 µg/mL,> 200 µg/mL,> 200 µg/mL,> 200 µg/mL,> 200 µg/mL,> 200 µg/mL,> 200 µg/mL,> 200 µg/mL,> 200 µg/mL,> 200 µg/mL,> 200 µg/mL,> 200 µg/mL,> 200 µg/mL,> 200 µg/mL,25 µg/mL,9.77 µg/mL
O=C(Nc1nnc(C2CC2)o1)NC1C2CC3CC(C2)CC1C3 (centres undefined),2410 nM,180 µg/mL,> 200 µg/mL,> 200 µg/mL,> 200 µg/mL,> 200 µg/mL,> 200 µg/mL,200 µg/mL,> 200 µg/mL,> 200 µg/mL,> 200 µg/mL,> 200 µg/mL,> 200 µg/mL,200 µg/mL,> 200 µg/mL,> 200 µg/mL,3.13 µg/mL,
O=C(Nc1ncncn1)NC12CC3CC(CC(C3)C1)C2,79 nM,,> 200 µg/mL,> 200 µg/mL,> 200 µg/mL,> 200 µg/mL,> 200 µg/mL,> 200 µg/mL,> 200 µg/mL,> 200 µg/mL,> 200 µg/mL,> 200 µg/mL,> 200 µg/mL,> 200 µg/mL,> 200 µg/mL,> 200 µg/mL,125 µg/mL,7.2 µg/mL
Cn1cc(NC(=O)NC23CC4CC(CC(C4)C2)C3)cn1,488 nM,,> 200 µg/mL,> 200 µg/mL,> 200 µg/mL,> 200 µg/mL,> 200 µg/mL,> 200 µg/mL,> 200 µg/mL,> 200 µg/mL,> 200 µg/mL,> 200 µg/mL,> 200 µg/mL,> 200 µg/mL,> 200 µg/mL,> 200 µg/mL,50 µg/mL,41.1 µg/mL
O=C(Nc1ncccn1)NC12CC3CC(CC(C3)C1)C2,24000 nM,,> 200 µg/mL,> 200 µg/mL,> 200 µg/mL,> 200 µg/mL,> 200 µg/mL,> 200 µg/mL,> 200 µg/mL,> 200 µg/mL,> 200 µg/mL,> 200 µg/mL,> 200 µg/mL,> 200 µg/mL,> 200 µg/mL,> 200 µg/mL,200 µg/mL,6.9 µg/mL
O=C(Nc1ccncn1)NC12CC3CC(CC(C3)C1)C2,775 nM,,> 200 µg/mL,> 200 µg/mL,> 200 µg/mL,> 200 µg/mL,> 200 µg/mL,200 µg/mL,50 µg/mL,> 200 µg/mL,50 µg/mL,> 200 µg/mL,> 200 µg/mL,100 µg/mL,> 200 µg/mL,> 200 µg/mL,25 µg/mL,15.5 µg/mL
